How the values were obtained:
ERβ LBD = target: T1, ERβ LBD (Homo sapiens, UniProt Q92731); experiment: Ability to bind to ERβ: pBIND-ERβ LBD / GAL4 luciferase reporter in HEK293 cells; type: cell-based; parameters: key: RLU = firefly luminescence / Renilla luminescence; details: negative control 0.0118997
T1 construct: host or cells: HEK293
Description: This evaluation system is a system exploiting difference in the sequence of the ligand binding domain (LBD) between ERα and ERβ (J Endocrinol 163: 379-383 (1999)), and enables selective activation of ERβ to be evaluated by determining the binding of a ligand to LBD and the activation of ER.
A human kidney-derived cell line HEK293 was cultured (37° C., 5% CO2) in Dulbecco's modified Eagle medium (hereinafter, abbreviated to DMEM) containing 10% (v/v) fetal bovine serum (FBS) and penicillin/streptomycin.
2) Measurement of Binding Activity Against ERs
This measurement was carried out according to the method described in JP-B-5990058. Specifically, HEK293 cells were inoculated at a cell density of 4.0×10^4 cells/well to a 96-well plate. After 12 hours therefrom, the medium was replaced with a culture solution (DMEM containing 5% (v/v) charcoal-treated serum). The cells were cotransfected with pBIND-ERα for the expression of ERα LBD or pBIND-ERβ for the expression of ERβ LBD (Promega Corp.) and pGL4.35[luc2P/9XGAL4UAS/Hygro](Promega Corp.) using Lipofectamine 2000 (Invitrogen Corp.) according to the protocol attached to the product. 24 hours after transfection, the medium was replaced with a culture solution containing a test sample, followed by culture for another 24 hours. The activity measurement of firefly luciferase (index for the ligand binding activity of ER) and Renilla reniformis luciferase (index for the transfection efficiency of the plasmids) was carried out using Dual-Glo™ Luciferase Assay System (Promega Corp.) according to the attached protocol. The luminescence intensity of the firefly luciferase was divided by the luminescence intensity of the Renilla reniformis luciferase to calculate a relative light unit (RLU).

ERβ = target: T2, ERβ (Homo sapiens, UniProt Q92731); experiment: Ability to activate transcription mediated by ERβ (pcDNA3-ERβ, pERE luciferase, HEK293 cells); type: cell-based; details: negative control 0.001475
T2 construct: host or cells: HEK293
T2 sequence (Q92731 whole entry): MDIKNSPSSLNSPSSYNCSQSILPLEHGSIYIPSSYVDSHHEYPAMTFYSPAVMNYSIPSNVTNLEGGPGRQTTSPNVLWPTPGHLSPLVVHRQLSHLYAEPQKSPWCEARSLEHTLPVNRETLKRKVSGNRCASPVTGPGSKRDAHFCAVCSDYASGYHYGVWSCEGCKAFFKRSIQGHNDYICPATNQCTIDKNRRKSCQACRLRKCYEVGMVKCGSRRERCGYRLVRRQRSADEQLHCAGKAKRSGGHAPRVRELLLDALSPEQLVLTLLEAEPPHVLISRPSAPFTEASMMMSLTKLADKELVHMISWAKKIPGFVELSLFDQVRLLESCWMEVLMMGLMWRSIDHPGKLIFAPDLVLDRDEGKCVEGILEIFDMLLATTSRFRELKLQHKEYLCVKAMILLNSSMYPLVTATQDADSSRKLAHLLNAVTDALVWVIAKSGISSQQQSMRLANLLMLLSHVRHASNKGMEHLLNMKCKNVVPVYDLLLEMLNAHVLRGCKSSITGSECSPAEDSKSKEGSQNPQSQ
Description: 1) Experimental Method (Measurement of Transcriptional Activity Mediated by ERs)
HEK293 cells were inoculated at a cell density of 4.0×10^4 cells/well to a 96-well plate. After 12 hours therefrom, the medium was replaced with a culture solution (DMEM containing 5% (v/v) charcoal-treated serum). The cells were cotransfected with pcDNA3-ERα or pcDNA3-ERβ (Promega Corp.) and pERE and pRL-CMV (Promega Corp.) using Lipofectamine 2000 (Invitrogen Corp.) according to the protocol attached to the product. 24 hours after transfection, the medium was replaced with a culture medium containing a test sample, followed by culture for another 24 hours. Then, luciferase activity was measured using Dual-Glo™ Luciferase Assay System (Promega Corp.) according to the attached protocol. The luminescence intensity of firefly luciferase (index for the ability to activate transcription mediated by ERE) was divided by the luminescence intensity of Renilla reniformis luciferase (index for the transfection efficiency of the plasmids) to calculate a relative light unit (RLU).

[1] = test system: prostate of testosterone-induced prostatic hyperplasia rat; experiment: Efficacy on prostate in testosterone-induced prostatic hyperplasia rat; type: in vivo; details: testosterone 3 mg/kg/day plus test substance 0.1 or 1 mg/kg body weight/day, subcutaneous osmotic pump, 28 days, vs testosterone alone
Source text: 12-week-old male Slc:SD (SPF) rats were obtained from Japan SLC, Inc. An acclimatization period was established for 1 week after receipt. During the acclimatization period, the rats were allowed to freely ingest a powder diet (AIN-93G).
2) Implantation of Osmotic Pump
(§1) After body weight measurement, back hair was shaved under isoflurane (AbbVie GK) inhalation anesthesia, and carprofen was subcutaneously administered to the rats. Then, an incision of approximately 1 cm at the maximum was made on the cranial side in the back. An osmotic minipump Alzet (Muromachi Kikai Co., Ltd.) containing testosterone and compound 17-F or finasteride (Sigma-Aldrich Co. LLC) was subcutaneously implanted. From this osmotic pump, testosterone (3 mg/kg body weight/day) (Sigma-Aldrich Co. LLC) and compound 17-F (0.1 mg/body weight/day or 1 mg/kg body weight/day) or finasteride (0.1 mg/kg body weight/day or 1 mg/kg body weight/day) were continuously administered for 28 days. Since the implantation of the osmotic pump, the rats were allowed to freely ingest customized feed AIN-93G (Oriental Yeast Co., Ltd.) free from components derived from soybeans.
3) Photographing of Skin and Harvesting of Prostate
After a lapse of 28 days, body weights were measured, and subsequently, the rats were euthanized by blood letting under isoflurane anesthesia. Back hair was shaved, followed by photographing. Then, the abdominal cavity was opened to harvest the prostate on the ventral side. Wet weights were measured.

[2] = test system: back skin browning induced by testosterone; experiment: Effect on sebum secretion (back skin browning) in testosterone-treated rat; type: in vivo; details: testosterone 3 mg/kg/day plus test substance, subcutaneous osmotic pump, 28 days
Source text: as §1, with “12-week-old male Slc:SD (SPF) rats were obtained from Japan SLC, Inc. An acclimatization period was established for 1 week after receipt. During the acclimatization period, the rats were allowed to freely ingest a powder diet (AIN-93G). 2) Implantation of Osmotic Pump After” for “After”, “soybeans. 3) Photographing of Skin and Harvesting of Prostate After a lapse of 28 days, body weights were measured, and subsequently, the rats were euthanized by blood letting under isoflurane anesthesia. […] Wet weights were measured. […]” for “soybeans.”

T1 sequence (Q92731 264-498 limits assumed): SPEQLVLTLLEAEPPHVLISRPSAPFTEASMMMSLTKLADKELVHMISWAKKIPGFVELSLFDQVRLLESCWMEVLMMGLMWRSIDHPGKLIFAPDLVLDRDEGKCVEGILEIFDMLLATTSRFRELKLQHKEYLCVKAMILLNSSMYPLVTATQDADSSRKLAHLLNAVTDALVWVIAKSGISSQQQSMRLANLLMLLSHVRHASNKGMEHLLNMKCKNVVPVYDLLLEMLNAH

relative light unit (RLU), ligand binding activity ERβ (ERβ LBD; 0.01 nM): 0.4273
relative light unit (RLU), ligand binding activity ERβ (ERβ LBD; 0.1 nM): 1.771
relative light unit (RLU), ligand binding activity ERβ (ERβ LBD; 1 nM): 2.021
relative light unit (RLU), ligand binding activity ERβ (ERβ LBD; 10 nM): 2.367
relative light unit (RLU), ligand binding activity ERβ (ERβ LBD; 100 nM): 2.186
relative light unit (RLU), transcription activation ERβ (ERβ; 0.01 pM): 0.002468
relative light unit (RLU), transcription activation ERβ (ERβ; 0.1 pM): 0.004255
relative light unit (RLU), transcription activation ERβ (ERβ; 1 pM): 0.01104
relative light unit (RLU), transcription activation ERβ (ERβ; 10 pM): 0.03023
relative light unit (RLU), transcription activation ERβ (ERβ; 100 pM): 0.03238
relative light unit (RLU), transcription activation ERβ (ERβ; 1000 pM): 0.03342
relative light unit (RLU), transcription activation ERβ (ERβ; 10000 pM): 0.03507
melting point: 90 to 91 °C
SMILES: Oc1ccc(CC(C=C(F)F)c2ccc(O)cc2F)c(F)c1 (stereo not shown) [Compound 17-F, 4,4′-(4,4-difluorobut-3-ene-1,2-diyl)bis(3-fluorophenol)]
size of the prostate (visual, FIG. 1) [1]: Concentration-dependent decrease in the size of the prostate
weight of the prostate corrected with the body weight (FIG. 2) [1]: decreased to almost the same level as in the DMSO administration group
skin browning induced by testosterone (sebum secretion, FIG. 3) [2]: markedly inhibited
